US9840464B2, “IAP binding compounds” (TetraLogic Birinapant UK Ltd., priority 2004, dated 2017)

Target: XIAP-BIR3 (Homo sapiens, UniProt P98170)
Assay: XIAP BIR3 fluorescence polarization binding assay (competition with AbuRPF-K(5-Fam)-NH2)
Settings: 5 nM AbuRPF-K(5-Fam)-NH2, 40 nM XIAP-BIR3, pH 7.5; Kd calculated from measured IC50; read-out: KD Range
Procedure: Binding constants (Kd) were measured using fluorescence polarization as described by Zaneta Nikolovska-Coleska, Renxiao Wang, Xueliang Fang, Hongguang Pan, York Tomita, Peng Li, Peter P. Roller, Krzysztof Krajewski, Naoyuki Saito, Jeanne Stuckey and Shaomeng Wang, in “Development and Optimization of a Binding Assay for the XIAP BIR3 Domain Using Fluorescence Polarization”, Analytical Biochemistry 2004, 332, 261-273). Briefly, test IAP binding compounds at various concentrations for binding measurements were mixed with 5 nM fluorescently labeled peptide (AbuRPF-K(5-Fam)-NH2) and 40 nM of XIAP-BIR3 for 15 minutes at room temperature in 100 μL of 0.1M Potassium Phosphate buffer, pH 7.5 containing 100 μg/ml bovine γ-globulin. Following incubation, the polarization values (mP) were measured on a Victor^2V using a 485 nm excitation filter and a 520 nm emission filter. IC50 values were determined from the plot using nonlinear least-squares analysis using GraphPad Prism. The Kd values of competitive inhibitors were calculated using the equation described by Zaneta Nikolovska-Coleska et al. based upon the measured IC50 values, the Kd value of the probe and XIAP BIR3 complex, and the concentrations of the protein and probe in the competition assay. In various examples of IAP binding or IAP binding cargo molecules ranges for Kd values: Group A: Kd<0.1 μM; Group B: Kd=0.1-1 μM; Group C: Kd=1-10 μM; Group D: Kd>10 μM.

Sequence of XIAP-BIR3 (P98170 241-356 limits assumed): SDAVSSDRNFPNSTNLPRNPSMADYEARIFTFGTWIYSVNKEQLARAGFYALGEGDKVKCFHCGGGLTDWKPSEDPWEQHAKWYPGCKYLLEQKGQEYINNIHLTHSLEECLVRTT

Row | Kd [nM] | Structure (SMILES)
1 | > 10000 | Cc1cccc(C)c1OCCCC1CCCN1C(=O)C(NC(=O)C(C)N)C(C)C (centres unmarked) [Entry 4-38]
2 | < 100 | CN[C@@H](C)C(=O)N[C@H](C(=O)N1C[C@@H](Oc2ccccc2)C[C@H]1Cc1coc2ccccc12)C(C)C [Entry 5-45]
3 | > 10000 | CC(C)C(NC(=O)CN)C(=O)N1CCCC1Cc1coc2ccccc12 (centres unmarked) [Entry 5-46]
4 | < 100 | CNC(C)C(=O)NC(C(=O)N1CCCC1Cc1coc2ccccc12)C(C)C (centres unmarked) [Entry 5-57]
5 | 100 to 1000 | CCC(N)C(=O)NC(C(=O)N1CCCC1Cc1coc2ccccc12)C(C)C (centres unmarked) [Entry 5-58]
6 | 100 to 1000 | CCC(NC(=O)C(C)N)C(=O)N1CCCC1Cc1coc2ccccc12 (centres unmarked) [Entry 5-59]
7 | < 100 | C#CCOC(C)[C@H](NC(=O)[C@H](C)N)C(=O)N1CCC[C@H]1Cc1coc2ccccc12 (some centres unmarked) [Entry 5-60]
8 | < 100 | CC(N)C(=O)NC(C(=O)N1CCCC1Cc1coc2ccc(Cl)cc12)C(C)C (centres unmarked) [Entry 5-61]
9 | < 100 | CNC(C)C(=O)NC(C(=O)N1CCCC1Cc1coc2ccc(Cl)cc12)C(C)C (centres unmarked) [Entry 5-62]

Further lines, the compound ahead of its results:

Row | Structure (SMILES) | Kd [nM]
10 | CCc1ccccc1OCCC[C@@H]1C[C@H](Oc2ccccc2)CN1C(=O)[C@@H](NC(=O)[C@H](C)NC)C(C)C [Entry 4-26] | 100 to 1000
11 | CCc1ccccc1OCCCC1CC(Oc2ccccc2)CN1C(=O)C(NC(=O)CN)C(C)C (centres unmarked) [Entry 4-27] | > 10000
12 | CCc1ccccc1OCCC[C@@H]1C[C@H](Oc2ccccc2)CN1C(=O)[C@@H](NC(=O)[C@H](C)NC)C(C)(C)C [Entry 4-28] | 100 to 1000
13 | CC(C)Oc1ccccc1OCCC[C@@H]1C[C@H](Oc2ccccc2)CN1C(=O)[C@@H](NC(=O)[C@H](C)N)C(C)C [Entry 4-29] | 100 to 1000
14 | CC(C)c1ccccc1OCCC[C@@H]1C[C@H](Oc2ccccc2)CN1C(=O)[C@@H](NC(=O)[C@H](C)N)C(C)C [Entry 4-30] | 100 to 1000
15 | Cc1cccc(C)c1OCCC[C@@H]1C[C@H](Oc2ccccc2)CN1C(=O)[C@@H](NC(=O)[C@H](C)N)C(C)C [Entry 4-31] | 100 to 1000
16 | CC(C)[C@H](NC(=O)[C@H](C)N)C(=O)N1CCC[C@H]1CCCOc1ccccc1-c1ccccc1 [Entry 4-32] | 100 to 1000
17 | CCc1ccccc1OCCCC1CCCN1C(=O)C(NC(=O)C(C)N)C(C)C (centres unmarked) [Entry 4-34] | 1000 to 10000
18 | CC(C)Oc1ccccc1OCCCC1CCCN1C(=O)C(NC(=O)C(C)N)C(C)C (centres unmarked) [Entry 4-35] | 1000 to 10000
19 | CC(N)C(=O)NC(C(=O)N1CCCC1CCCOc1ccccc1)C(C)C (centres unmarked) [Entry 4-37] | 1000 to 10000
20 | CC(C)[C@H](NC(=O)[C@H](C)N)C(=O)N1C[C@@H](Oc2ccccc2)C[C@H]1Cc1coc2ccccc12 [Entry 5-39] | < 100
21 | C[C@H](N)C(=O)N[C@H](C(=O)N1C[C@@H](Oc2ccccc2)C[C@H]1Cc1coc2ccccc12)C(C)(C)C [Entry 5-40] | < 100
22 | CC(C)[C@H](NC(=O)[C@H](C)N)C(=O)N1CCC[C@H]1Cc1coc2ccccc12 [Entry 5-41, 2S-Amino-N-[1S-(2S-benzofuran-3-ylmethyl-pyrrolidine-1-carbonyl)-2-methyl-propyl]-propionamide] | < 100
23 | CN[C@@H](C)C(=O)N[C@H](C(=O)N1C[C@@H](Oc2ccccc2)C[C@H]1Cc1coc2ccccc12)C1CCCCC1 [Entry 5-43] | < 100
24 | CC[C@H](N)C(=O)N[C@H](C(=O)N1C[C@@H](Oc2ccccc2)C[C@H]1Cc1coc2ccccc12)C(C)C [Entry 5-44] | < 100
25 | CC(N)C(=O)NC(C(=O)N1CCCC1Cc1coc2ccccc12)C1CCCCC1 (centres unmarked) [Entry 5-47] | < 100
26 | CC(C)C(NC(=O)CN)C(=O)N1CC(Oc2ccccc2)CC1Cc1coc2ccccc12 (centres unmarked) [Entry 5-52] | 1000 to 10000
27 | CC[C@H](NC(=O)[C@H](C)N)C(=O)N1C[C@@H](Oc2ccccc2)C[C@H]1Cc1coc2ccccc12 [Entry 5-54] | < 100
28 | CC[C@H](NC(=O)[C@@H](N)CC)C(=O)N1C[C@@H](Oc2ccccc2)C[C@H]1Cc1coc2ccccc12 [Entry 5-55] | 100 to 1000
29 | CC[C@H](N)C(=O)N[C@H](C(=O)N1C[C@@H](Oc2ccccc2)C[C@H]1Cc1coc2ccccc12)C1CCCCC1 [Entry 5-56] | 100 to 1000
